Test results: US9302999B2, “Substituted triazoles as herbicides” (E. I. DU PONT DE NEMOURS AND COMPANY, priority 2012, dated 2016)

What was measured:
[1] = system: crabgrass, large (large crabgrass, Digitaria sanguinalis); assay: Test E pre-/postemergence: crabgrass, large; assay type: in vivo; settings: Preemergence, scale 0 to 100
From the text: (§1) Seeds of plant species selected from corn (Zea mays), soybean (Glycine max), velvetleaf (Abutilon theophrasti), lambsquarters (Chenopodium album), poinsettia, wild (wild poinsettia, Euphorbia heterophylla), pigweed, palmer (palmer pigweed, Amaranthus palmeri), waterhemp (common waterhemp, Amaranthus rudis), smartweed (ladysthumb smartweed, Polygonum persicaria), surinam grass (Brachiaria decumbens), crabgrass, large (large crabgrass, Digitaria sanguinalis), crabgrass, Brazil (Brazilian crabgrass, Digitaria horizontalis), panicum, fall (fall panicum, Panicum dichotomiflorum), foxtail, giant (giant foxtail, Setaria faberii), foxtail, green (green foxtail, Setaria viridis), goosegrass (Eleusine indica), johnsongrass (Sorghum halepense), ragweed (common ragweed, Ambrosia elation), barnyardgrass (Echinochloa crus-galli), sandbur (southern sandbur, Cenchrus echinatus), arrowleaf sida (Sida rhombifolia), ryegrass, Italian (Italian ryegrass, Lolium multiflorum), dayflower, (VA) (Virginia dayflower, Commelina virginica), field bindweed (Convolvulus arvensis), cocklebur (common cocklebur, Xanthium strumarium), morningglory (Ipomoea coccinea), nightshade (eastern black nightshade, Solanum ptycanthum), kochia (Kochia scoparia), nutsedge, yellow (yellow nutsedge, Cyperus esculentus) and beggarticks (hairy beggarticks, Bidens pilosa) were planted into a silt loam soil and treated preemergence with test chemicals formulated in a non-phytotoxic solvent mixture which included a surfactant. At the same time, plants selected from these crop and weed species were planted in pots containing a growing medium comprising spaghnum peat moss, vermiculite, wetting agent and starter nutrients and treated with postemergence applications of some of the test chemicals formulated in the same manner. Plants ranged in height from 2 to 18 cm for postemergence treatments (1- to 4-leaf stage).
(§2) Treated plants and controls were maintained in a greenhouse for 14 to 21 days, after which time all species were compared to controls and visually evaluated. Plant response ratings, summarized in Table E, are based on a scale of 0 to 100 where 0 is no effect and 100 is complete control. A dash (-) response means no test result.

[2] = system: arrowleaf sida (Sida rhombifolia); assay: Test E pre-/postemergence: arrowleaf sida; assay type: in vivo; settings: scale 0 to 100
From the text: as §1, §2

[3] = system: ryegrass, Italian (Italian ryegrass, Lolium multiflorum); assay: Test F pre-/postemergence: ryegrass, Italian; assay type: in vivo
From the text: Seeds of plant species selected from corn (Zea mays), soybean (Glycine max), velvetleaf (Abutilon theophrasti), lambsquarters (Chenopodium album), poinsettia, wild (wild poinsettia, Euphorbia heterophylla), pigweed, palmer (palmer pigweed, Amaranthus palmeri), waterhemp (common waterhemp, Amaranthus rudis), surinam grass (Brachiaria decumbens), crabgrass, Brazil (Brazilian crabgrass, Digitaria horizontalis), panicum, fall (fall panicum Panicum dichotomiflorum), crabgrass, large (large crabgrass, Digitaria sanguinalis), foxtail, giant (giant foxtail, Setaria faberii), foxtail, green (green foxtail Setaria viridis), goosegrass (Eleusine indica), ragweed (common ragweed, Ambrosia elatior), barnyardgrass (Echinochloa crus-galli), sandbur (southern sandbur, Cenchrus echinatus), arrowleaf sida (Sida rhombifolia), ryegrass, Italian (Italian ryegrass, Lolium multiflorum), dayflower, VA (Virginia (VA) dayflower, Commelina virginica), field bindweed (Convolvulus arvensis), cocklebur (common cocklebur, Xanthium strumarium), morningglory (Ipomoea coccinea), nightshade (eastern black nightshade, Solanum ptycanthum), kochia (Kochia scoparia), nutsedge, yellow (yellow nutsedge, Cyperus esculentus), johnsongrass (Sorghum halepense), smartweed (ladysthumb smartweed, Polygonum persicaria), and beggarticks (hairy beggarticks, Bidens pilosa), were planted into a silt loam soil and treated preemergence with test chemicals formulated in a non-phytotoxic solvent mixture which included a surfactant. At the same time, plants selected from these crop and weed species and also pigweed (Amaranthus retroflexus), waterhemp_RES1 (ALS/Triazine resistant common waterhemp, Amaranthus rudis) and waterhemp_RES2 (ALS/HPPD resistant common waterhemp, Amaranthus rudis) were planted in pots containing a planting medium comprising spaghnum peat moss, vermiculite, wetting agent and starter nutrients treated with postemergence applications of some of the test chemicals formulated in the same manner. Plants ranged in height from 2 to 18 cm for postemergence treatments (1- to 4-leaf stage).
as §2

[4] = system: Barnyardgrass; assay: Test C postemergence: barnyardgrass; assay type: in vivo, Echinochloa crus-galli
From the text: (§3) At the same time, plants selected from these crop and weed species and also barley (winter barley, Hordeum vulgare), canarygrass (Phalaris minor), chickweed (common chickweed, Stellaria media) windgrass (Apera spica-venti) and deadnettle (henbit deadnettle, Lamium amplexicaule) were planted in pots containing Redi-Earth® planting medium (Scotts Company, 14111 Scottslawn Road, Marysville, Ohio 43041) comprising spaghnum peat moss, vermiculite, wetting agent and starter nutrients and treated with postemergence applications of test chemicals formulated in the same manner. Plants ranged in height from 2 to 18 cm (1- to 4-leaf stage) for postemergence treatments.
as §2, with “13” for “14”, “15” for “21”, “C,” for “E,”

[5] = system: Oilseed Rape; assay: Test C postemergence: oilseed rape; assay type: in vivo
From the text: as §3
as §2, with “13” for “14”, “15” for “21”, “C,” for “E,”

[6] = system: Oilseed Rape; assay: Test C postemergence: oilseed rape; assay type: in vivo, Brassica napus
From the text: (§4) Seeds of plant species selected from blackgrass (Alopecurus myosuroides), bromegrass, downy (downy bromegrass, Bromus tectorum), foxtail, green (green foxtail, Setaria viridis), ryegrass, Italian (Italian ryegrass, Lolium multiflorum), winter wheat (Triticum aestivum), wild oat (Avena fatua), galium (catchweed bedstraw, Galium aparine), bermudagrass (Cynodon dactylon), surinam grass (Brachiaria decumbens), cocklebur (common cocklebur, Xanthium strumarium), corn (Zea mays), large crabgrass (Digitaria sanguinalis), woolly cupgrass (Eriochloa villosa), foxtail, giant (giant foxtail, Setaria faberii), goosegrass (Eleusine indica), johnsongrass (Sorghum halepense), kochia (Kochia scoparia), lambsquarters (Chenopodium album), morningglory (Ipomoea coccinea), nightshade (eastern black nightshade, Solanum ptycanthum), nutsedge, yellow (yellow nutsedge, Cyperus esculentus), pigweed (Amaranthus retroflexus), ragweed (common ragweed, Ambrosia elation), soybean (Glycine max), common (oilseed) sunflower (Helianthus annuus), Russian thistle (Salsola kali) and velvetleaf (Abutilon theophrasti) were planted into a blend of loam soil and sand and treated preemergence with test chemicals formulated in a non-phytotoxic solvent mixture which included a surfactant.
as §3
as §2, with “13” for “14”, “15” for “21”, “C,” for “E,”

[7] = system: Waterhemp; assay: Test C postemergence: waterhemp; assay type: in vivo, Amaranthus rudis
From the text: as §4, §3
as §2, with “13” for “14”, “15” for “21”, “C,” for “E,”

[8] = Preemergence, 16 g ai/ha, scale 0 to 100 (0 no effect, 100 complete control)
[9] = Preemergence, 31 g ai/ha, scale 0 to 100 (0 no effect, 100 complete control)
[10] = Preemergence, 125 g ai/ha, scale 0 to 100
[11] = 31 g ai/ha, scale 0 to 100 (0 no effect, 100 complete control)
[12] = 62 g ai/ha, scale 0 to 100 (0 no effect, 100 complete control)
[13] = 125 g ai/ha, scale 0 to 100, 0 no effect, 100 complete control
[14] = 250 g ai/ha, scale 0 to 100 (0 no effect, 100 complete control)
[15] = Postemergence, 8 g ai/ha, scale 0 to 100
[16] = Postemergence, 16 g ai/ha, scale 0 to 100
[17] = Postemergence, 31 g ai/ha, scale 0 to 100
[18] = Postemergence, 62 g ai/ha, scale 0 to 100

| SMILES | Plant response rating: Crabgrass, Large ([1]; 16 g ai/ha) | Plant response rating: Crabgrass, Large ([1]; 31 g ai/ha) | Plant response rating: Crabgrass, Large ([1]; 62 g ai/ha) | Plant response rating: Crabgrass, Large ([1]; 125 g ai/ha) | Plant response rating: Arrowleaf Sida ([2]; Preemergence, 16 g ai/ha) | Plant response rating: Arrowleaf Sida ([2]; Preemergence, 31 g ai/ha) | Plant response rating: Arrowleaf Sida ([2]; Preemergence, 62 g ai/ha) | Plant response rating: Arrowleaf Sida ([2]; Preemergence, 125 g ai/ha) | Plant response rating, Ryegrass, Italian [3, 8] | Plant response rating, Ryegrass, Italian [3, 9] | Plant response rating, Barnyardgrass [4, 11] | Plant response rating, Barnyardgrass [4, 12] | Plant response rating, Barnyardgrass ([4]; 250 g ai/ha, scale 0 to 100) | Plant response rating, Oilseed Rape [5, 12] | Plant response rating, Oilseed Rape ([5]; 250 g ai/ha, scale 0 to 100) | Plant response rating, Oilseed Rape [6, 13] | Plant response rating, Waterhemp [7, 13] | other results |
| --- | --- | --- | --- | --- | --- | --- | --- | --- | --- | --- | --- | --- | --- | --- | --- | --- | --- | --- |
| Cc1nn(-c2ccc(F)cc2)nc1Oc1ccnc(C(F)(F)F)c1 [Compound 129, 4-[[2-(4-fluorophenyl)-5-methyl-2H-1,2,3-triazol-4-yl]oxy]-2-(trifluoromethyl)pyridine] | 10 | 80 | 100 | 100 | 0 | 0 | 30 | 30 | – | – | – | – | – | – | – | – | – | Plant response rating: Crabgrass, Large ([1]; 8 g ai/ha): 0; Plant response rating: Arrowleaf Sida ([2]; Preemergence, 8 g ai/ha): 0 |
| CCCc1nn(-c2ccc(F)cc2)nc1Cc1ccnc(C(F)(F)F)c1 [Compound 153] | – | – | – | – | – | – | – | – | 5 | 5 | 20 | 35 | 75 | 90 | 95 | 90 | 98 | Plant response rating, Ryegrass, Italian [3, 10]: 65; Plant response rating, Ryegrass, Italian ([3]; Preemergence, 250 g ai/ha, scale 0 to 100): 95; Plant response rating, Oilseed Rape [5, 11]: 90 |
| Cc1nn(-c2ccc(F)cc2)nc1Cc1ccnc(C(F)(F)F)c1 [Compound 16, 4-[[2-(4-fluorophenyl)-5-methyl-2H-1,2,3-triazol-4-yl]methyl]-2-(trifluoromethyl)pyridine] | 5 | 5 | 90 | 90 | 0 | 0 | 0 | 35 | – | – | – | – | – | – | – | – | – | Plant response rating: Crabgrass, Large ([1]; 8 g ai/ha): 0; Plant response rating: Arrowleaf Sida ([2]; Preemergence, 8 g ai/ha): 0 |
| CCCc1nn(-c2ccc(C(F)(F)F)c(F)c2)nc1Oc1ccnc(C(F)(F)F)c1 [Compound 185] | – | – | – | – | – | – | – | – | – | – | 30 | 35 | 80 | 50 | – | 50 | 95 | Plant response rating, Oilseed Rape [6, 14]: 55; Plant response rating, Waterhemp [7, 14]: 100 |
| Cc1nn(-c2ccc(C(F)(F)F)c(F)c2)nc1Cc1ccnc(C(F)(F)F)c1 [Compound 162] | – | – | – | – | – | – | – | – | 35 | 80 | 20 | 65 | 95 | 90 | 95 | 90 | 100 | Plant response rating, Ryegrass, Italian ([3]; Postemergence, 4 g ai/ha, scale 0 to 100): 0; Plant response rating, Ryegrass, Italian [3, 15]: 0; Plant response rating, Ryegrass, Italian [3, 16]: 0; Plant response rating, Ryegrass, Italian [3, 17]: 0; Plant response rating, Ryegrass, Italian [3, 18]: 0; Plant response rating, Ryegrass, Italian ([3]; Preemergence, 4 g ai/ha, scale 0 to 100, 0 no effect, 100 complete control): 0; Plant response rating, Ryegrass, Italian ([3]; Preemergence, 8 g ai/ha, scale 0 to 100, 0 no effect, 100 complete control): 0; Plant response rating, Oilseed Rape [5, 11]: 90 |
| Cc1nn(-c2ccc(F)c(F)c2)nc1Oc1ccnc(C(F)(F)F)c1 [Compound 145] | – | – | – | – | – | – | – | – | – | – | – | – | – | – | – | – | – | Plant response rating, Ryegrass, Italian [3, 15]: 5; Plant response rating, Ryegrass, Italian [3, 16]: 10; Plant response rating, Ryegrass, Italian [3, 17]: 20; Plant response rating, Ryegrass, Italian [3, 18]: 30; Plant response rating, Ryegrass, Italian ([3]; Postemergence, 125 g ai/ha, scale 0 to 100): 40 |
| Cc1nn(-c2ccc(C(F)(F)F)cc2)nc1Cc1ccnc(C(F)(F)F)c1 [Compound 47, 4-[[5-methyl-2-[4-(trifluoromethyl)phenyl]-2H-1,2,3-triazol-4-yl]methyl]-2-(trifluoromethyl)pyridine] | 20 | 75 | 100 | 100 | 0 | 20 | 40 | 60 | – | – | – | – | – | – | – | – | – | Plant response rating: Crabgrass, Large ([1]; 250 g ai/ha): 100; Plant response rating: Arrowleaf Sida ([2]; Postemergence, 250 g ai/ha): 85; Plant response rating: Arrowleaf Sida ([2]; Postemergence, 16 g ai/ha): 50; Plant response rating: Arrowleaf Sida ([2]; Postemergence, 31 g ai/ha): 60; Plant response rating: Arrowleaf Sida ([2]; Postemergence, 62 g ai/ha): 70; Plant response rating: Arrowleaf Sida ([2]; Postemergence, 125 g ai/ha): 80; Plant response rating: Arrowleaf Sida ([2]; Preemergence, 250 g ai/ha): 95 |
| CCc1nn(-c2ccc(F)cc2)nc1Oc1ccnc(C(F)(F)F)c1 [Compound 166] | – | – | – | – | – | – | – | – | – | – | 10 | 25 | 60 | 5 | 40 | 5 | 98 | – |
| Fc1ccc(-n2nc(Cc3ccnc(C(F)(F)F)c3)c(OCC(F)(F)F)n2)cc1 [Compound 142] | – | – | – | – | – | – | – | – | 5 | 65 | – | – | – | – | – | – | – | Plant response rating, Ryegrass, Italian [3, 10]: 100 |
